From patent publication US12661362B2, “Methods for the prevention and treatment of hearing loss” (Ting Therapeutics LLC, priority 2020, dated 2026) come the findings set out here.

The subject of assay [1] is FVB/NJ mice. The assay can be described thus: Noise-induced hearing loss in FVB/NJ mice (ABR, DPOAE, wave-I, CtBP2 ribbon count). The assay is classed as in vivo, mouse. From the text:
(§1) Now referring to FIGS. 4A-4F Niclosamide attenuates Cisplatin-induced hearing loss in FVB/NJ mice. Mice: Procedures used with mice were approved by the Institutional Animal Care and Use Committee (IACUC) at the Creighton University. For functional assessments including Cisplatin and noise exposure experiments 5 to 7-week-old FVB/NJ mice obtained from Jackson Laboratory (Bar Harbor, ME, USA) were used, with a mix of males and females across experiments. For the Cisplatin and noise studies, FVB/NJ mice were treated with 10 mg/kg Niclosamide, through intraperitoneal (IP) injection. Niclosamide, was dissolved in 1% DMSO in normal saline (0.9% NaCl solution) and vortexed multiple times before injections. Treatment started 24 hours before the Cisplatin or noise-exposure and continued once daily for 3 more days. Cisplatin was injected IP at 30 mg/kg divided into 2 doses per day. Animals were given 1 mL warm sterile normal saline subcutaneously twice a day before and for 7 days after Cisplatin treatment to prevent dehydration.
(§2) Now referring to FIG. 4A, ABR tests were performed 2-3 days before Cisplatin exposure, and 5 days post-Cisplatin exposure. The experimental groups included: Cisplatin and 1% DMSO, Cisplatin and Niclosamide, Niclosamide, only, and age-matched controls receiving normal saline. For the noise experiment, auditory tests were performed 2-3 days prior to noise exposure (paradigm described below), at post-exposure day-1 to monitor temporary threshold shift (TTS) and at post-exposure day-14 to monitor permanent threshold shift (PTS). Experimental groups included: noise-exposure and normal saline, noise-exposure and Niclosamide, Niclosamide-only, and age-matched controls. Following the final auditory function measurements, mice were euthanized, and cochleae were collected for morphological assessment. Based on the results of FVB/NJ ABR/DPOAE threshold variances and power analysis, ten FVB/NJ mice per group (5 of each sex) were used in this study.
Now referring to FIGS. 5B-5F, mice were injected with 10 mg/kg Niclosamide, per IP injection once per day for four consecutive days: one day before noise exposure (8-16 kHz at 105 dB SPL), the day of the noise exposure, and two days after noise exposure. Control animals received vehicle injections on the same schedule.
Now referring to FIG. 5B, Noise-induced ABR threshold shifts were obtained by subtraction of the pre-exposure from the post-exposure thresholds.
Now referring to FIG. 5C, DPOAE amplitudes were measured at f2 frequency ranging from 10 to 80 dB SPL in mice. […] A two-factor ANOVA (group x frequency) was used to compare pre-exposure amplitudes to Day 15 amplitudes.
Now referring to FIG. 5D, mean wave-I amplitudes at 10, 20, 28.3, and 40 kHz were measured at Day 15 post-noise exposure. Amplitudes from the 10-90 dB SPL stimulus intensity were compared between groups in the pre-noise test using a two-factor ANOVA (group x stimulus level), and no group differences were detected. At Day 15, only the 60-90 dB SPL stimulus levels were used because many of the subjects had no responses below 60 dB SPL.
Now referring to FIG. 5E to assess the protection of the ribbon synapses, the cochlear samples were immunostained with CtBP2, one of the most abundant proteins in synaptic ribbon bodies (Kujawa S G, et al. 2006). […] Now referring to FIG. 5F, […] hair cell count of ribbon synapses. […] In the same cochleae, OHCs were also counted. […] The frequency region of 16 kHz was used for CtbP2 ribbon count because this has been shown that ribbons are more abundant in this frequency region.

Assay [2] has as its system FVB/NJ mice. In words: Cisplatin-induced hearing loss in FVB/NJ mice (ABR, DPOAE, wave-1, hair cell count). The class given is in vivo, mouse.
Description: as §1, §2
Now referring to FIG. 4B measurement of the distortion products otoacoustic emission (DPOAE) thresholds at frequencies ranging from 8 to 40 kHz in cisplatin, niclosamide, control, and cisplatin-niclosamide treated-mice.
Now referring to FIG. 4C-4D, mean wave-1 amplitudes at 8, 16, 32, and 40 kHz was measured in the control and Niclosamide-treated mice before Cisplatin injection and at Day 5 post-Cisplatin injection. The ABR wave-1 amplitude represents the summed activity of the cochlear nerve. Amplitudes from the 85 dB SPL stimuli were compared between groups in the baseline ABR measurements using a two-factor ANOVA (group x frequency), and no group differences were detected (P>0.05).
Now referring to FIGS. […], representative samples of the mouse HCs at 32 kHz, the most protected frequency region shown by ABR measurement (FIG. 4E). […] Niclosamide protects NMDA-induced hair cell loss in zebrafish. Application of the N-methyl-d-aspartate (NMDA) to zebrafish neuromast HCs has also been used to mimic glutamate excitotoxicity associated with noise exposure (Katie S. Kindt and Lavinia Sheets, 2018). The results of the HC count following exposure of zebrafish to 300 μM NMDA led to hair-cell loss.

In the next assay the test system is zebrafish neuromast HCs. In words: Zebrafish lateral-line neuromast hair cell protection against Cisplatin. The class given is in vivo, Danio rerio. On the procedure: Danio rerio experimental larvae were obtained by pair mating of adult fish maintained at Creighton University by standard methods approved by the Institutional Animal Care and Use Committee. […] We used Tg(pou4f3:mGFP) expressing a membrane bound GFP in HCs. Experimental fish were maintained at 28.5° C. in E3 media (5 mM NaCl, 0.17 mM KCl, 0.33 mM CaCl2) and […], pH 7.2). Animals were cryoanaesthetized after drug treatment and prior to fixation. The neuromasts inspected, S03 and 01-2, were part of the cranial system and included the otic, middle, and opercular neuromasts.
Subsequently, animals were transferred to E3 water for 5 hours and fixed in 4% paraformaldehyde (PFA) overnight (26). Neuromast HCs were immunolabeled with anti-otoferlin (HCS-1, DSHB) and anti-GFP (NB100-1614, Novus Biologicals). These two markers were used to detect and count neuromast HCs to reduce the chances of missing some of the HCs after the treatment since we previously noticed that incubation with the compounds can affect GFP expression more difficult to detect under a fluorescence microscope. Otic, middle, and opercular neuromasts were identified, and HCs at S03 (supraorbital line neuromast) and 01-2 (Otic line neuromasts) were manually counted using a Zeiss AxioSkop 2 fluorescence microscope with a 40× oil objective. Compounds were then evaluated on efficiency and potency, with the top-rated compounds showing high protection at lower concentrations.

Regarding `O=C(Nc1ccc([N+](=O)[O-])cc1Cl)c1cc(Cl)ccc1O` [Niclosamide, 5-chloro-N-(2-chloro-4-nitrophenyl)-2-hydroxy-benzamide], in the assay with FVB/NJ mice [1] (8 kHz to 63 kHz, Day 14, 10 mg/kg IP), the “noise-induced ABR threshold shifts versus noise exposed group” value is listed as “lower threshold shifts”. Further, the “synaptic ribbon (CtBP2) survival versus saline-noise group” value in the assay with FVB/NJ mice [1] (16 kHz) is “more synaptic ribbon survival”. Besides, in the assay with FVB/NJ mice [1] (32 kHz), the “proportion of surviving OHCs versus saline-noise animals” value is recorded as “similar”. The “wave-I amplitudes versus noise-exposed group” value with FVB/NJ mice [1] (80 and 90 dB SPL, Day 15) is given as “higher amplitudes”. Besides, the “wave-I amplitude (cochlear nerve activity) versus age-matched controls” value with FVB/NJ mice [1] (Day 15) is “comparable to aged matched controls”. In addition, the “DPOAE amplitudes versus noise-saline group” value in the assay with FVB/NJ mice [1] (day-15 post-noise exposure) is on record as “significantly higher”. Further, the “ABR threshold shifts versus Cisplatin-only mice” value with FVB/NJ mice [2] (8, 12 and 32 kHz, 10 mg/kg IP, Cisplatin 30 mg/kg) is on record as “significantly reduced ABR threshold shifts”. In the assay on FVB/NJ mice [2] (16 and 32 kHz, 10 mg/kg IP, Day 5 post-Cisplatin), the “DPOAE threshold shifts versus Cisplatin-only mice” value was “significantly reduced DPOAE threshold shifts”. Moreover, the “HC survival versus Cisplatin group” value in the assay with FVB/NJ mice [2] (30 kHz region) is given as “more HC survival”. In addition, the “outer hair cell quantification, protection against Cisplatin-induced hair cell loss” value in the assay with FVB/NJ mice [2] (32 kHz region, cotreatment) is “full protection”. In the assay with FVB/NJ mice [2] (all tested frequencies at 85 dB SPL, Day 5 post-Cisplatin), the “ABR wave-1 amplitudes versus Cisplatin only group” value is recorded as “higher amplitudes”. Besides, in the assay with zebrafish neuromast HCs (0.002 μM, lowest concentration tested, normalized to Cisplatin only (0%) and DMSO (100%)), the “highest level of protection of neuromast HCs” value is given as ~50%. Besides, in the assay on zebrafish neuromast HCs (0.002-13.3 μM, Cisplatin-treated zebrafish), the “hair cell loss (fluorescent staining of neuromasts)” value is reported as “reduce hair cell loss”. Besides, the “Cisplatin damage in zebrafish HCs at S03 and O1-2” value with zebrafish neuromast HCs (pretreated with 0.002 μM) is recorded as “significantly reduced Cisplatin damage”.
